These results are taken from patent publication US20090186915A1, “Compositions and methods for treatment of glioblastoma, gliosarcoma, NSCLC, and head and neck cancer” (Unibioscreen S. A., priority 2006, published 2009).

One experiment has as its system MCF-7. As to the kind of experiment: MTT colorimetric assay, MCF-7 cells. To be noted: Homo sapiens, MCF7, 72 h, 3 days of culturing, mean of six determinations, read-out: IC50 (μM) In Vitro Growth Inhibition. The experiment is classed as cell-based. On the procedure: The overall growth of human cancer cell lines was determined by means of the calorimetric MTT (3-[4,5-dimethylthiazol-2-yl]-diphenyl tetrazolium bromide; Sigma) assay, as detailed previously.
A general note: Tetrazolium assays rely on reduction of a dye to a coloured formazan, in cell work by metabolically active cells.

Experiment [1] concerns PC-3. As to the kind of experiment: Lysosomal membrane permeabilization (LMP), PC-3. The experiment is classed as cell-based, human. To be noted: 72 hours, 1 μM or 10 μM. The text has this: It is well known that lysosomes control cell death at several levels. In response to endogenous or exogenous stress (including chemotherapy), lysosomal membrane permeabilization (LMP) can occur, leading to the release of catabolic hydrolases that can mediate caspase-dependent apoptosis, caspase-independent apoptosis-like cell death or even necrosis following high levels of LMP.

The test system of experiment [2] is PC-3. As to the kind of experiment: Senescence-associated β-galactosidase staining, PC-3. Particulars: 10 μM, 72 hours. The experiment is classed as cell-based, human. The protocol:
After the indicated treatments, cells were washed in PBS, fixed for 3 to 5 minutes (at room temperature) in 2% formaldehyde/0.2% glutaraldehyde, washed and incubated at 37° C. (in the absence of CO2) with fresh senescence-associated β-Gal (SA-β-Gal) staining solution: 1 mg/ml of 5-bromo-4-chloro-3-indolyl […] (X-Gal; Sigma). Staining was evident within 2 to 4 hours and maximal after 12 to 16 hours. To detect lysosomal β-Gal, the citric acid/sodium phosphate used was pH 4.0. As described in the study of Dimri et al. [Proc Natl Acad Sci USA. 1995; 92:9363-9367.], after fixing and staining with X-Gal, the number of cells positive for the SA-β-Gal activity (intense blue staining) was then counted independently by two different individuals (on 400 cells/plate). Representative photographs (original magnifications, ×20) of stained cells from different experimental treatments were taken. As a positive control for SA-β-Gal expression, Adriamycin-treated cells were used.
Human PC-3 and DU-145 prostate cancer cells cultured in 0 or 10 μM UNBS5162 or 20 nM Adriamycin for 72 hours were evaluated by SA-β-Gal staining. The data clearly indicate that 10 μM [but not 1 μM or 5×1 μM] […] TMZ, as an inducer of autophagy but not of senescence, was used as a negative control.

A further experiment concerns CFC-GEMM. As to the kind of experiment: HALO hematotoxicity assay, mouse CFC-GEMM. The experiment is classed as cell-based. To be noted: 5 days culture, iATP. On the procedure:
(§1) Investigation of the hematotoxic potential of UNBS5162 was undertaken by HemoGenix (Colorado Springs, Colo.). The effects of UNBS5162 on stem and progenitor cell populations from murine and human bone marrow were assessed using HALO (Hematopoietic/Hematotoxicity Assay through Luminescence Output) technology. Stem and hematopoietic progenitor cell populations were isolated from mouse and human bone marrow samples, plated at a concentration of 1.0×10^4 cells/well and cultured for 5 and 7 days, respectively, in the presence of growth factors and increasing concentrations of UNBS5162 ranging from 0.5 nM to 50 μM. The proliferative or growth potential of cell populations was determined from intracellular ATP (iATP) concentrations and a luciferin/luciferase bioluminescence signal detection system. All samples were assayed in eight replicates. The results are presented as estimated inhibitory concentration (IC) values.

Experiment [3] has as its system GM-CFC. As to the kind of experiment: HALO hematotoxicity assay, mouse GM-CFC. The experiment is classed as cell-based. Particulars: 5 days culture, iATP. The protocol:
as §1

Experiment [4] deals with GM-CFC. The experiment can be described thus: HALO hematotoxicity assay, human GM-CFC. The experiment is classed as cell-based. To be noted: 7 days culture, iATP. The protocol: as §1
Experiment [5] relates to PC-3. The experiment can be described thus: Quantitative videomicroscopy, PC-3. The experiment is classed as cell-based, human. The protocol:
(§2) Use was made of computer-assisted phase-contrast microscopy (quantitative videomicroscopy) in the attempt to elucidate an overall picture of UNBS5162's mechanism of action. […] In addition, 10 μM UNBS5162 caused a marked enlargement in PC-3 cells by the end of the 6-day treatment period compared with the start of the experiment.

The subject of another experiment is DU-145. The experiment can be described thus: Quantitative videomicroscopy, DU-145. The experiment is classed as cell-based, human. To be noted: 1 μM. The protocol:
as §2

Another experiment relates to E2F1. The experiment can be described thus: E2F1 expression (Western blot, RT-PCR), PC-3. The experiment is classed as cell-based, human. To be noted: 10 μM. The protocol:
Reverse transcription reactions were carried out in a thermal cycler (Thermocycler; Westburg, Leusden, The Netherlands). The purification of the cDNAs produced was undertaken using the High Pure PCR Product Purification Kit (Roche Diagnostics, Mannheim, Germany) in accordance with the manufacturer's instructions. Quantitative PCR reactions were performed with 50 ng of purified cDNA in a LightCycler thermocycler instrument (Roche Diagnostics) using LCFastart DNA Master SYBR Green 1 (Roche Diagnostics). After amplification, data analysis was carried out by means of the “Fit points” algorithm of the LightCycler quantification software. A standard curve enabled cDNA quantification of samples to be effected. […]
Cell extracts were prepared by the lysis of subconfluent PC-3 cells directly in boiling lysis buffer (10 mM Tris, pH 7.4, 1 mM Na3O4V, 1% SDS, pH 7.4). Approximately 40 μg of extracted proteins (evaluated by the bicinchoninic acid protein assay; Pierce, Perbio Science, Erembodegem, Belgium) was then loaded onto a denaturing polyacrylamide gel. The proteins submitted to Western blot analyses were detected using primary antibodies provided by: 1) CST Technologies, Bioké, Leiden, The Netherlands: Rb (1:2000) and p-Rb (1:1000); 2) BD Transduction Laboratories, Erembodegem, Belgium: E2F1 (1:400); and 3) AbCam, Cambridge, UK: tubulin (1:3000, used as a loading control). […]

Take `CN(C)CCN1C(=O)c2cccc3cc(NC(N)=O)cc(c23)C1=O` [UNBS5162, N-{2-[2-(dimethylamino)ethyl]-1,3-dioxo-2,3-dihydro-1H-benzo[de]isoquinolin-5-yl}urea]: the IC50 with MCF-7 is 46.5 µM; in the experiment on CFC-GEMM (120 h) it was 6.22 µM; in the experiment on GM-CFC [3] (120 h) it was 7.04 µM; in the experiment with GM-CFC [4] (168 h), 3.74 µM. Besides, the “lysosomal membrane permeabilization (LMP)” value in the experiment on PC-3 [1] was “no LMP”. The SA-β-Gal expression entry in the experiment with PC-3 [2] is “Limited SA-β-Gal expression”. For the same compound, the IC90 in the experiment on CFC-GEMM (120 h) came to 8.96 µM; with GM-CFC [3] (120 h), 12 µM; with GM-CFC [4] (168 h), 19.9 µM. In addition, the IC75 came to 7.48 µM in the experiment on CFC-GEMM, 9.09 µM in the experiment on GM-CFC [3] and 8.12 µM in the experiment on GM-CFC [4]. Further, the “cell dynamics (videomicroscopy)” value in the experiment with PC-3 [5] (1 μM) and in the experiment on DU-145 was “induced no detectable changes” each time. The “cell population development (videomicroscopy)” value in the experiment with PC-3 [5] (10 μM, six days of observation) is on record as “prevented PC-3 cell population development”. Also, the “E2F1 expression at protein and mRNA levels” value with E2F1 is recorded as “dramatic decrease in E2F1 expression”.

One may read the IC50 as the midpoint of a concentration-inhibition curve. One may read the IC90 as the concentration at which the effect reaches the 90% level. A high value points to a need for much substance. In general, IC75 refers to the concentration needed for an effect of 75%. A high value points to weaker potency.
